Assay results published in patent US20260374836A1, “PALMITOYLATED ANALOGUE OF PROLACTIN-RELEASING PEPTIDE FOR INTRANASAL ADMINISTRATION” (USTAV ORGANICKE CHEMIE A BIOCHEMIE AKADEMIE VED CR, V. V. I., priority 2022, published 2026).
Entries after “also recorded” stand apart in the source; their conditions may differ. Numbered stars: 1 amine (or outer) side, 2 acyl side, 3 side chain; on linkers, the order of the positions; unused ones are H or OH. Side chains are listed from the residue outwards. Ends that are not written are not given here. Peptide text beside a SMILES is read from it. * marks the point of attachment. γGlu = O=C(O)[C@H](CCC(=O)[*:2])N[*:1]; Palmitoyl = CCCCCCCCCCCCCCCC(=O)*

Legend:
[1] = background statement; cited from earlier work
blood glucose [2] = assay: blood glucose after repeated administration to obese WKY rats on high-fat diet; assay type: in vivo, rat (Wistar Kyoto; conditions: obese WKY rats on HFD, IN 0.3 mg/kg repeated, same extent as IP 5 mg/kg
Method: (§1) Male WKY rats (Charles River, Germany) were kept in the accredited animal facility of the Institute of Physiology of the CAS, v.v.i., Prague, in the facility of the Academy of Sciences in Krč at a temperature of 22±2 °C and had free access to food and tap water. The light/dark rhythm was 12/12 hours (light onset 4:00). The animals were treated according to the Act on the Protection of Animals against Cruelty (Act No. 246/1992 Coll.). Males were fed a high-fat diet D12492 (Research Diets, USA) containing 60% fat, 20% protein and 20% carbohydrate. From 8 weeks of age, they were fed this diet for 4 months. They were then divided into groups of 5 animals (IP administration of saline or palm^11-PrRP31 in saline at 5 mg/kg) or 8 animals (IN administration of saline or palm^11-PrRP31 in saline at 0.3 mg/kg). The compound was administered IP or IN once daily 1 hour before lights out for 30 days. Throughout the period, the weight of the rats was monitored 3 times a week and at the end, glycated hemoglobin was measured in blood drawn from the tail. Glycated hemoglobin (HbAlc) was determined using the Tina-quant HbAlc Gen. 3 kit (Roche, Mannheim, Germany).

obese C57BL/6 mice = assay: change in weight after chronic (14 days) SC or IN administration to obese C57BL/6 mice on high-fat diet; assay type: in vivo, mouse (C57BL/6); conditions: for body weight change: obese C57BL/6 mice on HFD
Method: (§2) Male C57BL/6 mice (Charles River, Germany) were kept in the accredited animal facility of the Institute of Organic Chemistry and Biochemistry of the CAS, Prague, in the facility of the Academy of Sciences in Krč at a temperature of 22±2 °C and had free access to food and tap water. The light/dark rhythm was 12/12 hours (light onset 4:00). The animals were treated according to the Act on the Protection of Animals against Cruelty (Act No. 246/1992 Coll.). Males were fed at-house-made high-fat diet containing 60% fat (lard), 20% protein and 20% carbohydrate. From 8 weeks of age, they were fed this diet for 4 months. They were then divided into groups of 6 animals (SC administration of saline or palm^11-PrRP31 in saline at 5 mg/kg and IN administration of saline or palm^11-PrRP31 in saline at 0.3 mg/kg). The compound was administered SC or IN twice daily 1 hour before lights out for 14 days. Throughout the period, the weight of the mice was monitored 3 times a week.
(§3) Graph-Pad Prism Software (San Diego, CA, USA), one-way ANOVA followed by Dunnett's post-hoc test was used for statistical evaluation. Differences in food intake between individuals injected with saline and those injected with palm^11-PrRP31 were considered statistically significant at P<0.05.

[3] = test system: mouse and rat models of high-fat diet-induced obesity; conditions: chronic peripheral administration; cited from earlier work
GPR10 = conditions: previous studies (EP 3094643); cited from earlier work
obese WKY rats = assay: change in weight after chronic (30 days) IP or IN administration to obese WKY rats on high-fat diet; assay type: in vivo, rat (Wistar Kyoto; conditions: for weight change: obese WKY rats on HFD, 30 days
Method: as §1, §3

[4] = test system: glycated hemoglobin (HbAlc); assay: glycated hemoglobin (HbA1c) in obese WKY rats after 30 days of treatment; assay type: in vivo, rat (Wistar Kyoto; conditions: obese WKY rats on HFD
Method: as §1, §3

fasted C57BL/6 mice = assay: food intake test in fasted mice after SC or IN administration; assay type: in vivo, mouse (C57BL/6); conditions: for food intake: fasted mice
Method: Male mice of strain C57BL/6 (Charles River, Germany) were kept in the accredited animal facility of the Institute of Organic Chemistry and Biochemistry of the Academy of Sciences of the Czech Republic (CAS), Prague in the facility of the Academy of Sciences in Krč at a temperature of 22±2 °C and had free access to food and tap water. The rhythm of light/dark was 12/12 h (light onset 6:00). The animals were treated according to the Act on the Protection of Animals against Cruelty (Czech Act No. 246/1992 Coll.). Males were fed a standard Ssniff R/M-H diet (Ssniff Spezialdiäten GmbH, Soest, Germany). 16 h before the application of palm^11-PrRP31, the mice were fasted with free access to water. Application of saline and palm^11-PrRP31 after dissolution in saline was performed by SC at 5 mg/kg (volume 0.15 ml/mouse) or IN using a fine-tip pipette at 0.01 and 0.1 mg/kg (5 μl/mouse). Twenty minutes after peptide injection, mice were given pre-weighed food. The food was then weighed every 30 minutes for 7 hours. The experiment was performed at least twice for each dose of palm^11-PrRP31 and one group of mice consisted of at least 6 mice. The results are expressed as a percentage of food intake compared to the saline-injected control group.
as §3, with “saline (control)” for “saline”

blood glucose [5] = assay: blood glucose after repeated administration to obese C57BL/6N mice on high-fat diet; assay type: in vivo, mouse (C57BL/6N); conditions: obese C57BL/6N mice on HFD, IN 0.3 mg/kg repeated
Method: as §2, with “They were then divided into groups of 6 animals (SC administration of saline or palm^11-PrRP31 in saline at 5 mg/kg and IN administration of saline or palm^11-PrRP31 in saline at 0.3 mg/kg).” left out

rats = conditions: intracerebroventricular (ICV); cited from earlier work
[6] = IN 0.3 mg/kg once daily, listed as Palm^11-PrRP31

Q: For `CCCCCCCCCCC[C@@H](C[C@@H]1OC(=O)[C@H]1CCCCCC)OC(=O)[C@H](CC(C)C)NC=O` [Orlistat], which side effects [1] is on record?
A: diarrhea

Q: Which blood glucose (blood glucose [2]) does the source give for `CCCCCCCCCCCCCCCC(=O)N[C@@H](CCC(=O)NCCCC[C@H](NC(=O)[C@@H](NC(=O)[C@H](CCC(=O)O)NC(=O)[C@H](CCSC)NC(=O)[C@H](CO)NC(=O)[C@H](Cc1c[nH]cn1)NC(=O)[C@H](CCCNC(=N)N)NC(=O)[C@H](Cc1c[nH]cn1)NC(=O)[C@@H](NC(=O)[C@H](CCCNC(=N)N)NC(=O)[C@@H](N)CO)[C@@H](C)O)[C@@H](C)CC)C(=O)N[C@H](C(=O)N1CCC[C@H]1C(=O)N[C@@H](CC(=O)O)C(=O)N[C@H](C(=O)N[C@@H](CC(N)=O)C(=O)N1CCC[C@H]1C(=O)N[C@@H](C)C(=O)N[C@@H](Cc1c[nH]c2ccccc12)C(=O)N[C@@H](Cc1ccc(O)cc1)C(=O)N[C@@H](C)C(=O)N[C@@H](CO)C(=O)N[C@@H](CCCNC(=N)N)C(=O)NCC(=O)N[C@H](C(=O)N[C@@H](CCCNC(=N)N)C(=O)N1CCC[C@H]1C(=O)N[C@H](C(=O)NCC(=O)N[C@@H](CCCNC(=N)N)C(=O)N[C@@H](Cc1ccccc1)C(N)=O)C(C)C)[C@@H](C)CC)[C@@H](C)CC)[C@@H](C)O)C(=O)O` [palm^11-PrRP31] (H-SRTHRHSMEIK([γGlu-Palmitoyl])TPDINPAWYASRGIRPVGRF-NH2) here?
A: decreased blood glucose

Q: What about the “significance P vs. saline, change in weight” value (obese C57BL/6 mice; FIG. 4, IN 0.3 mg/kg, SC 5 mg/kg twice daily, ANOVA, Dunnett's) of the same molecule?
A: < 0.001

Q: What about the body weight change (obese C57BL/6 mice; IN 0.3 mg/kg (twice daily, 14 days)) of the same molecule?
A: reduced weight; also recorded: highly significant weight reduction

Q: And the body weight change (obese C57BL/6 mice; IN 0.3 mg/kg (twice daily, 14 days), listed as Palm^11-PrRP31)?
A: highly significant weight reduction

Q: What about the body weight change (obese C57BL/6 mice; SC 5 mg/kg twice daily, 14 days) of the same molecule?
A: highly significant weight reduction

Q: And the “anti-obesity and anti-diabetic effects” value [3]?
A: anti-obesity and anti-diabetic effects

Q: And the “potency among analogues of PrRP31” value (GPR10)?
A: most potent analogue of the natural peptide PrRP31

Q: And the “significance P vs. saline, change in weight” value (obese WKY rats; FIG. 2, IN 0.3 mg/kg, IP 5 mg/kg, ANOVA, Dunnett's)?
A: < 0.001

Q: What about the “IN dose lower than IP dose for the same weight reduction” value (obese WKY rats; IN 0.3 mg/kg vs. IP dose, rats) of the same molecule?
A: 16 times lower

Q: And the weight change (obese WKY rats; IN 0.3 mg/kg once daily)?
A: reduced weight; also recorded: highly significant weight reduction

Q: And the weight change (obese WKY rats; [6])?
A: reduced the weight of rats after chronic administration to the same extent

Q: And the weight change (obese WKY rats; IP 5 mg/kg once daily, 5 mg/kg)?
A: highly significant weight reduction

Q: What about the weight change (obese WKY rats; IP 5 mg/kg once daily, listed as Palm^11-PrRP31, 5 mg/kg) of the same molecule?
A: reduced the weight of rats after chronic administration to the same extent

Q: And the “glycated hemoglobin (HbAlc)” value ([4]; IN 0.3 mg/kg once daily)?
A: significant decrease in blood glycated hemoglobin

Q: What about the “glycated hemoglobin (HbAlc)” value [4, 6] of the same molecule?
A: significantly reduced glycated hemoglobin

Q: And the “glycated hemoglobin (HbAlc)” value ([4]; IP 5 mg/kg once daily)?
A: significantly reduced glycated hemoglobin

Q: And the “significance P vs. saline, cumulative food intake” value (fasted C57BL/6 mice; FIG. 1, SC 5 mg/kg, IN 0.01 and 0.1 mg/kg, ANOVA, Dunnett's)?
A: < 0.001

Q: What about the “IN dose relative to SC dose for the same reduction in food intake, in words” value (fasted C57BL/6 mice; IN 0.01 and 0.1 mg/kg vs. SC 5 mg/kg) of the same molecule?
A: an order of magnitude lower dose

Q: What about the “IN dose lower than SC dose to achieve the same effect on food intake” value (fasted C57BL/6 mice; IN vs. SC, feeding test in mice) of the same molecule?
A: 1-2 orders of magnitude

Q: And the food intake (fasted C57BL/6 mice; IN 0.01 mg/kg, vs. saline / SC 5 mg/kg)?
A: same reduction in food intake; also recorded: significantly reduced food intake

Q: And the food intake (fasted C57BL/6 mice; IN 0.01 mg/kg, vs. saline / SC 5 mg/kg, listed as Palm^11-PrRP31)?
A: reduced food intake in fasted mice very significantly and over a long period of time, to the same extent

Q: What about the food intake (fasted C57BL/6 mice; IN 0.1 mg/kg, vs. saline / SC 5 mg/kg) of the same molecule?
A: same reduction in food intake; also recorded: significantly reduced food intake

Q: And the food intake (fasted C57BL/6 mice; IN 0.1 mg/kg, vs. saline / SC 5 mg/kg, listed as Palm^11-PrRP31)?
A: reduced food intake in fasted mice very significantly and over a long period of time, to the same extent

Q: And the food intake (fasted C57BL/6 mice; SC 5 mg/kg, vs. saline, 5 mg/kg)?
A: highly significant (P<0.001) reduction in food intake; also recorded: significantly reduced food intake

Q: What about the food intake (fasted C57BL/6 mice; SC 5 mg/kg, vs. saline, listed as Palm^11-PrRP31, 5 mg/kg) of the same molecule?
A: reduced food intake in fasted mice very significantly and over a long period of time

Q: What about the blood glucose (blood glucose [5]) of the same molecule?
A: decreased blood glucose

Q: What does the source list for “PrRP31: natural prolactin-releasing peptide form containing 31 amino acids (SRTHRHSMEIRTPDINPAWYASRGIRPVGRF; ends and bridges not checked; UniProt P81277 23-53, looked up)”?
A: food intake (rats): significant short-term reduction in food intake; weight (rats): weight loss

Q: Which side effects [1] does the source give for `CC(C)CC(N(C)C)C1(c2ccc(Cl)cc2)CCC1` (stereo not drawn) [Sibutramine] here?
A: increase the risk of heart disease
